Results taken from patent US20240408085A1, “COMPOUND FOR DEGRADATION OF BCL-2 FAMILY PROTEINS AND MEDICAL APPLICATION THEREOF” (XIZANG HAISCO PHARMACEUTICAL CO., LTD., priority 2021, published 2024).

Tests used:
BCL-xL proteins = target: T1, BCL-xL proteins (Homo sapiens, UniProt Q07817); test: BCL-xL degradation activity in MOLT-4 cells (western blot, 16 h); assay type: cell-based
T1 construct: degradation effect on the BCL-xL proteins in MOLT-4 cells; host or cells: MOLT-4
Procedure: MOLT-4 cells are acute lymphoblastic leukemia cell lines in humans. The cells were purchased from ATCC. Culture conditions: RPMI-1640+10% FBS+1% penicillin-streptomycin solution. The cells were cultured in a 37° C., 5% CO2 incubator. The cells were plated in a 12-well plate, with 2×10^5 cells/well. After plating, compounds at different concentrations were added and cultured in a 37° C., 5% CO2 incubator for 16 h. After the completion of culture, the cells were harvested and RIPA lysis buffer (beyotime, Cat. P0013B) was added. The cells were lysed on ice for 15 minutes and centrifuged at 12000 rpm at 4° C. for 10 minutes. The supernatant protein samples were collected and the protein was quantified by using the BCA kit (Beyotime, Cat. P0009). Then the protein was diluted to 0.8 mg/mL. The expressions of BCL-xL (CST, Cat. 2764S), BCL-2 (CST, Cat. 15071S) and the internal reference β-actin (CST, Cat. 3700S) were detected using a fully automated western blot quantitative analyzer (Proteinsimple). The expression level of BCL-xL or BCL-2 relative to the internal reference was calculated by using Compass software, and the DC50 value was calculated by using GraphPad Prism 8.0 software according to formula (1), wherein the Proteinadministration denoted the relative expression level of BCL-xL or BCL-2 in administration groups at different doses, and the Proteinvehicle denoted the relative expression level of BCL-xL or BCL-2 in the vehicle control group.
Protein %=Proteinadministration/Proteinvehicle×100% formula (1)

[1] = Pharmacokinetic test in monkeys (intravenous); assay type: in vivo; conditions: male, cynomolgus monkey, i.v. 2 mg/kg, plasma
Procedure: Experimental animals: male cynomolgus monkeys, 3-5 kg, 3-6 years old, 2 monkeys/compound. Purchased from Suzhou Xishan Biotechnology Inc.
Experimental method: on the day of the test, 2 monkeys were randomly grouped according to their body weights. The animals were fasted with water available for 14 to 18 h one day before the administration of a test compound, and were fed 4 hours after the administration.
Before and after the administration, 1.0 mL of blood samples were drawn from the limb veins and placed in an EDTAK2 centrifuge tube. Centrifugation was carried out at 5000 rpm at 4° C. for 10 min, and the plasma was collected. Blood collection time points for the intravenous group were: 0, 5 min, 15 min, 30 min, 1 h, 2 h, 4 h, 6 h, 8 h, 10 h, 12 h, 24 h, and 48 h. Before analysis and detection, all samples were stored at −80° C., and a quantitative analysis of samples was performed using LC-MS/MS.

MOLT-4 xenograft tumors = test: Growth inhibition experiment in MOLT-4 xenograft tumor models in mice; assay type: in vivo; conditions: two-way ANOVA and then Dunnett's test, FIG. 1
Procedure: MOLT-4 cells are acute lymphoblastic leukemia cell lines in humans. The cells were purchased from ATCC and cultured in RPMI-1640+10% FBS+1% o penicillin-streptomycin solution in a 37° C., 5% CO2 incubator. When the cells were in the exponential growth phase, the cells were harvested and counted. An equal volume of matrigel was added. Female SCID Beige mice (4-6 weeks old, 14-16 g, Beijing Vital River Laboratory Animal Technology Co., Ltd.) were inoculated subcutaneously in the right flank with the cells (200 μL, containing 1×10^7 MOLT-4 cells and 50% matrigel). When the tumor volume reached 150-200 mm^3, the mice were randomly grouped for administration according to the tumor volume and body weight of the mice. Three administration dosages were provided: 5 mpk, 15 mpk and 50 mpk. The compounds were injected intraperitoneally (ip) weekly (qw). The mice in all the experimental groups (10 mice in each group) were continuously administered for 4 weeks.
After inoculation, the body weights of the mice were measured three times a week and the long (a) and short (b) diameters of the tumors were measured. The tumor volume was calculated according to the formula: V=ab^2/2. At day 28 after the administration, the experiment was terminated.

platelet (PLT) = test: Effect on platelet (PLT) after single intravenous injection; assay type: in vivo, SD rats; design: key to Effect on PLT (↓ decrease): — represents that no significant change was observed; conditions: for platelet toxicity relative to the control compound: rats
Procedure: Experimental animal: 78 SD rats, with an equal number of males and females, male (♂): 290-380 g, female (♀): 220-290 g, 8-10 weeks old, purchased from Zhejiang Vital River Laboratory Animal Technology Co., Ltd.
Experimental protocol: a clear solution was formulated using a vehicle ([…]). The animals were dosed via tail vein a single time (administration volume: 20 mL/kg; bolus injection period: about 4 minutes; recovery period: 7 days).

T1 sequence (Q07817 whole entry): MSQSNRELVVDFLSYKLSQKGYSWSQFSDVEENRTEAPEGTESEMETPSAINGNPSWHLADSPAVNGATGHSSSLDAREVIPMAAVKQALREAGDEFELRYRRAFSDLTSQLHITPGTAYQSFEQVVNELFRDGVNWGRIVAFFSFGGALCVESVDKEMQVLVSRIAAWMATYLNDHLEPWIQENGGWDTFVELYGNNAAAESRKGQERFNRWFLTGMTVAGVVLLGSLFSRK

Cc1ncsc1-c1ccc([C@H](C)NC(=O)[C@@H]2C[C@@H](O)CN2C(=O)[C@@H](NC(=O)CCCCCC(=O)N2CCN(CC[C@H](CSc3ccccc3)Nc3ccc(S(=O)(=O)NC(=O)c4ccc(N5CCN(CC6=C(c7ccc(Cl)cc7)CCCCC6)CC5)cc4)cc3S(=O)(=O)C(F)(F)F)CC2)C(C)(C)C)cc1 [Compound 6, (2S,4R)-1-((S)-2-(7-(4-((R)-3-((4-(N-(4-(4-((2-(4-chlorophenyl)cyclohept-1-en-1-yl)methyl)piperazin-1-yl)benzoyl)sulfamoyl)-2-((trifluoromethyl)sulfonyl)phenyl)amino)-4-(phenylthio)butyl)piperazin-1-yl)-7-oxoheptanamido)-3,3-dimethylbutanoyl)-4-hydroxy-N—((S)-1-(4-(4-methylthiazol-5-yl)phenyl)ethyl)pyrrolidine-2-carboxamide]
DC50 (BCL-xL proteins): 8.4 nM | AUC(0-t) [1]: 54600 ± 5910 ng·h/mL | half-life [1]: 9.83 ± 2.2 h | growth inhibition on MOLT-4 xenograft tumor models, P versus the vehicle control group (MOLT-4 xenograft tumors): < 0.0001 | Effect on PLT (↓ decrease) (platelet (PLT); SD rats ♀, 6 mg/kg single i.v., 4 h): — | Effect on PLT (↓ decrease) (platelet (PLT); SD rats ♀, 6 mg/kg single i.v., D2): ↓60% | Effect on PLT (↓ decrease) (platelet (PLT); SD rats ♀, 20 mg/kg single i.v., 4 h): ↓61% | Effect on PLT (↓ decrease) (platelet (PLT); SD rats ♀, 20 mg/kg single i.v., D2): ↓84% | Effect on PLT (↓ decrease) (platelet (PLT); SD rats ♀, 60 mg/kg single i.v., D8): ↓53% | Effect on PLT (↓ decrease) (platelet (PLT); SD rats ♂, 6 mg/kg single i.v., 4 h): ↓16% | Effect on PLT (↓ decrease) (platelet (PLT); SD rats ♂, 6 mg/kg single i.v., D2): ↓56% | Effect on PLT (↓ decrease) (platelet (PLT); SD rats ♂, 20 mg/kg single i.v., 4 h): ↓51% | Effect on PLT (↓ decrease) (platelet (PLT); SD rats ♂, 20 mg/kg single i.v., D2): ↓71% | Effect on PLT (↓ decrease) (platelet (PLT); SD rats ♂, 60 mg/kg single i.v., D8): ↓17% | platelet toxicity relative to the control compound (platelet (PLT); 6 mg/kg and 20 mg/kg single i.v., 4 h and D2): less platelet toxicity | platelet toxicity relative to the control compound (platelet (PLT); 60 mg/kg single i.v., D8): less platelet toxicity
